According to US20220324770A1, “NITRIFICATION INHIBITORS” (The University of Melbourne, priority 2019, published 2022):

Experiments:
Horsham soil = assay: Soil microcosm incubation (nitrification of applied ammonium), Horsham soil
Description: (§1) The soil used in this study was collected from four different locations in Victoria, Australia: (i) a wheat cropping soil from Horsham (36° 45′S, 142° 07′ E), (ii) a rotational cropping soil from Dahlen (36° 37′S, 142° 09′ E), (iii) a vegetable growing soil from Clyde (38° 08′S, 145° 20′ E), and (iv) a pasture soil from Terang (38° 15′S, 142° 52′E). In addition, a sugarcane cropping soil from South Johnstone in northern Queensland (17° 34′S, 145° 57′ E) was also studied. The water content of the soil was calculated before commencing each experiment, from samples that were oven-dried to constant weight. The soil's water-filled pore space (WFPS) was in the range 52%-61%, which is within the recommended 50-70% range for microbial activity due to oxygen and nutrient availability (Fichtner, T., et al., Applied Sciences, 2019, 9, 496).
(§2) Soil microcosm incubations were carried out in 250 ml polypropylene specimen containers (Sarstedt, Germany), containing 18.24 g oven dry-weight equivalent of soil. Microcosms were re-wetted and pre-incubated at the test temperature for seven days to revive soil microbial activity. Following pre-incubation, the remaining volume to reach the desired water-filled pore spaces (WFPS %) was applied as one of the following treatment solutions; (NH4)2SO4(Control), (NH4)2SO4+DMPP, or (NH4)2SO4+one of Compounds 1-23. Each treatment was applied in triplicate per soil type, so that n=3 at each time point.
(§3) Treatment solutions were prepared such that each microcosm received (NH4)2SO4 at a rate of 100 mg N per kg soil, Compounds 1-23 at 10 mol % of applied N, or DMPP at one of 1.5, 3.6 or 10 mol % of applied N, referred to as L-DMPP, M-DMPP or H-DMPP respectively.
(§4) The microcosms were incubated for 0, 3, 7, 14, 21 or 28 days, where day 0 samples were extracted following 1-hour incubation post-treatment. Soil microcosms were aerated and moisture levels were replenished based on weight loss every few days throughout the incubation period.
(§5) At the end of each incubation period, soil microcosms were destructively sampled by treatment with 2M KCl (100 mL). After shaking for 1 hour, soil-KCl solutions were filtered (Whatman 42) before storing the filtrates at −20° C. until the conclusion of the experiment. All KCl extracts were then analysed by Segmented Flow Analysis (San++, Skalar, Breda, The Netherlands) for the concentration of nitrogen from ammonium (NH4^+—N) and nitrogen from NO3 and NO2 (NOx^−—N) after appropriate dilutions. Results are reported as the mean of three replicates, errors reported are standard errors of the mean.
(§6) Nitrification calculations were performed as previously reported (Aulakh, M., et al., Biology and Fertility of Soils 2001, 33, 258-263; Mahmood, T., et al., Soil Research 2017, 55, 715-722) without correction for the initial baseline concentrations of NH4^+—N or NO3^− N in the untreated soil. For each treatment nitrified NH4^+—N (%) was calculated according to eqn. 1:
(§7) where [NH4^+—N]0 is the NH4^+—N concentration (in mg N kg^−1 soil) of the soil on day 0 and [NH4^+—N]t is the NH4^+—N concentration (in mg N kg^−1 soil) of the soil at a given time point t.
(§8) NOx^−—N accumulation rates (mg NOx^−—N/kg soil/day) over the 28-day incubation experiments were calculated for each treatment as in the following (eqn. 2):
(§9) [NOx^−—N]t=0 and [NOx^−—N]t=28 are the combined concentrations of nitrite (NO2) and nitrate (NO3) in the soil (in mg N kg^−1 soil) on day 0 and day 28, respectively.

Dahlen soil = assay: Soil microcosm incubation (nitrification of applied ammonium), Dahlen soil; settings: for Nitrified NH4+—N (%) Day 3 / Nitrified NH4+—N (%) Day 7 / Nitrified NH4+—N (%) Day 14 / Nitrified NH4+—N (%) Day 21 / Nitrified NH4+—N (%) Day 28: 10 mol %
Description: as §1, §2, §3, §4, §5, §6, §7, §8, §9

South Johnstone soil = assay: Soil microcosm incubation (nitrification of applied ammonium), South Johnstone soil; settings: for Nitrified NH4+—N (%) Day 3 / Nitrified NH4+—N (%) Day 7 / Nitrified NH4+—N (%) Day 14 / Nitrified NH4+—N (%) Day 21 / Nitrified NH4+—N (%) Day 28: 10 mol %
Description: as §1, §2, §3, §4, §5, §6, §7

[1] = ranging from no effect; cited from earlier work
[2] = Horsham soil pH 8.8, 25° C., inhibitors 10 mol % of applied N
[3] = Horsham soil pH 8.8, 25° C., 10 mol %
[4] = Horsham soil pH 8.8, 35° C., 10 mol %
[5] = Dahlen soil, 35° C., after 28 days
[6] = Table 4, Dahlen soil pH 7.3, 25° C.
[7] = Table 4, Dahlen soil pH 7.3, 35° C.
[8] = South Johnstone soil pH 5.0, 25° C., negative = NH4+—N higher than day 0 (mineralisation)
[9] = South Johnstone soil pH 5.0, 25° C.
[10] = South Johnstone soil pH 5.0, 25° C., day 28
[11] = South Johnstone soil pH 5.0, 35° C.
[12] = South Johnstone soil pH 5.0, 35° C., day 28
[13] = Table 5, Dahlen soil pH 7.3, 25° C.
[14] = Table 5, Dahlen soil pH 7.3, 35° C.

CCCc1cn(CCC)nn1 [Compound 16, 1,4-dipropyl-1H-1,2,3-triazole]
Nitrified NH4+—N (%) Day 3 (Horsham soil; [2]): 8.9 ± 3.4%
Nitrified NH4+—N (%) Day 7 (Horsham soil; [3]): 24.9 ± 3.0%
Nitrified NH4+—N (%) Day 14 (Horsham soil; [3]): 44.2 ± 3.3%
Nitrified NH4+—N (%) Day 21 (Horsham soil; [3]): 57.5 ± 3.4%
Nitrified NH4+—N (%) Day 28 (Horsham soil; [3]): 70.9 ± 3.9%
Nitrified NH4+—N (%) Day 3 (Horsham soil; [4]): 2.5 ± 4.5%
Nitrified NH4+—N (%) Day 7 (Horsham soil; [4]): 22.3 ± 4.3%
Nitrified NH4+—N (%) Day 14 (Horsham soil; [4]): 42.3 ± 4.6%
Nitrified NH4+—N (%) Day 21 (Horsham soil; [4]): 74.9 ± 6.1%
Nitrified NH4+—N (%) Day 28 (Horsham soil; [4]): 83.7 ± 6.1%
retaining NH4+ vs uninhibited control treatment (Horsham soil; Horsham soil, 25° C., after 28 days): performed statistically better
nitrification rates vs uninhibited control treatment (Horsham soil; Horsham soil, 35° C.): lower nitrification rates than the uninhibited control treatment
retaining NH4+—N vs uninhibited control treatment and DMPP (Dahlen soil; Dahlen soil, 25° C., after 28 days): performed statistically better
NOx−—N accumulation rate (Dahlen soil; Dahlen soil, 35° C., 28-day incubation): 1.8 mg NOx−—N/kg soil/day
ammonia consumption (Dahlen soil; [5]): 17%
retaining NH4+ vs both DMPP treatment and control treatment (Dahlen soil; [5]): performed statistically better
Nitrified NH4+—N (%) Day 3 (Dahlen soil; [6]): 8.8 ± 3.3%
Nitrified NH4+—N (%) Day 7 (Dahlen soil; [6]): 15.6 ± 5.0%
Nitrified NH4+—N (%) Day 14 (Dahlen soil; [6]): 16.4 ± 28.7%
Nitrified NH4+—N (%) Day 21 (Dahlen soil; [6]): 26.9 ± 4.6%
Nitrified NH4+—N (%) Day 28 (Dahlen soil; [6]): 37.3 ± 4.4%
Nitrified NH4+—N (%) Day 3 (Dahlen soil; [7]): 1.5 ± 1.4%
Nitrified NH4+—N (%) Day 7 (Dahlen soil; [7]): 6.0 ± 1.5%
Nitrified NH4+—N (%) Day 14 (Dahlen soil; [7]): 16.1 ± 4.5%
Nitrified NH4+—N (%) Day 21 (Dahlen soil; [7]): 29.8 ± 1.2%
Nitrified NH4+—N (%) Day 28 (Dahlen soil; [7]): 16.9 ± 2.6%
Nitrified NH4+—N (%) Day 3 (South Johnstone soil; [8]): −6.3 ± 0.8%
Nitrified NH4+—N (%) Day 7 (South Johnstone soil; [9]): −11.5 ± 0.8%
Nitrified NH4+—N (%) Day 14 (South Johnstone soil; [9]): −14.4 ± 0.7%
Nitrified NH4+—N (%) Day 21 (South Johnstone soil; [9]): −16.8 ± 1.2%
Nitrified NH4+—N (%) Day 28 (South Johnstone soil; [10]): −13.2 ± 0.7%
Nitrified NH4+—N (%) Day 3 (South Johnstone soil; [11]): −14.7 ± 1.9%
Nitrified NH4+—N (%) Day 7 (South Johnstone soil; [11]): −26.3 ± 1.7%
Nitrified NH4+—N (%) Day 14 (South Johnstone soil; [11]): −35.7 ± 2.4%
Nitrified NH4+—N (%) Day 21 (South Johnstone soil; [11]): −35.7 ± 0.6%
Nitrified NH4+—N (%) Day 28 (South Johnstone soil; [12]): −18.4 ± 2.3%
retaining NH4+—N vs DMPP (South Johnstone soil; South Johnstone soil, 35° C.): performed statistically better than DMPP
retaining NH4+—N and slowing NOx−—N growth vs fertilised control (South Johnstone soil; South Johnstone soil, 35° C., day 28): performed statistically better than the fertilised control

Cc1c[nH]nc1C.O=P(O)(O)O [DMPP, 3,4-dimethylpyrazole phosphate, reference compound]
Nitrified NH4+—N (%) Day 3 (Horsham soil; [2]): −6.9 ± 2.8%
Nitrified NH4+—N (%) Day 7 (Horsham soil; [3]): 8.5 ± 2.8%
Nitrified NH4+—N (%) Day 14 (Horsham soil; [3]): 37.2 ± 2.3%
Nitrified NH4+—N (%) Day 21 (Horsham soil; [3]): 75.7 ± 5.4%
Nitrified NH4+—N (%) Day 28 (Horsham soil; [3]): 76.2 ± 2.1%
Nitrified NH4+—N (%) Day 3 (Horsham soil; [4]): 7.9 ± 3.0%
Nitrified NH4+—N (%) Day 7 (Horsham soil; [4]): 18.9 ± 2.8%
Nitrified NH4+—N (%) Day 14 (Horsham soil; [4]): 32.3 ± 4.1%
Nitrified NH4+—N (%) Day 21 (Horsham soil; [4]): 46.6 ± 5.9%
Nitrified NH4+—N (%) Day 28 (Horsham soil; [4]): 64.5 ± 12.7%
NOx−—N accumulation: effect of temperature (25° C. vs 35° C.) (Horsham soil; Horsham soil, 28-day incubation): greatest increase in production rate at the higher test temperature
retaining NH4+ and preventing NOx production (statistics vs control) (Horsham soil; Horsham soil, 35° C.): performed statistically better
NH4+—N consumption (Horsham soil; Horsham soil, 35° C., after 28 days): 65%
performance at higher temperature (Dahlen soil; Dahlen soil, 35° C. vs 25° C.): performed significantly poorer at the higher temperature
retaining NH4+—N vs (NH4)2SO4-treated control by day 28 (Dahlen soil; Dahlen soil, 35° C., Table 5 test): remain highly effective
nitrified ammonia (Dahlen soil; Dahlen soil, 35° C., day 21 (Table 5)): 52%
Nitrified NH4+—N (%) Day 3 (Dahlen soil; [6]): 2.1 ± 2.8%
Nitrified NH4+—N (%) Day 7 (Dahlen soil; [6]): 11.7 ± 6.7%
Nitrified NH4+—N (%) Day 14 (Dahlen soil; [6]): 17.3 ± 12.7%
Nitrified NH4+—N (%) Day 21 (Dahlen soil; [6]): 18.2 ± 6.6%
Nitrified NH4+—N (%) Day 28 (Dahlen soil; [6]): 18.6 ± 4.9%
Nitrified NH4+—N (%) Day 3 (Dahlen soil; [7]): 2.4 ± 3.0%
Nitrified NH4+—N (%) Day 7 (Dahlen soil; [7]): 24.8 ± 2.7%
Nitrified NH4+—N (%) Day 14 (Dahlen soil; [7]): 25.6 ± 3.8%
Nitrified NH4+—N (%) Day 21 (Dahlen soil; [7]): 48.3 ± 6.4%
Nitrified NH4+—N (%) Day 28 (Dahlen soil; [7]): 60.5 ± 8.4%
Nitrified NH4+—N (%) Day 3 (Dahlen soil; Table 5 (further comparative test), Dahlen soil pH 7.3, 25° C.): 4.9 ± 3.1%
Nitrified NH4+—N (%) Day 7 (Dahlen soil; [13]): 11.0 ± 3.2%
Nitrified NH4+—N (%) Day 14 (Dahlen soil; [13]): 17.4 ± 4.2%
Nitrified NH4+—N (%) Day 21 (Dahlen soil; [13]): 28.7 ± 5.2%
Nitrified NH4+—N (%) Day 28 (Dahlen soil; [13]): 21.8 ± 3.3%
Nitrified NH4+—N (%) Day 3 (Dahlen soil; [14]): 15.3 ± 2.9%
Nitrified NH4+—N (%) Day 7 (Dahlen soil; [14]): 15.8 ± 2.5%
Nitrified NH4+—N (%) Day 14 (Dahlen soil; [14]): 16.0 ± 6.0%
Nitrified NH4+—N (%) Day 21 (Dahlen soil; [14]): 51.5 ± 5.4%
Nitrified NH4+—N (%) Day 28 (Dahlen soil; [14]): 38.5 ± 2.9%
Nitrified NH4+—N (%) Day 3 (South Johnstone soil; [8]): −12.5 ± 8.8%
Nitrified NH4+—N (%) Day 7 (South Johnstone soil; [9]): −10.3 ± 0.7%
Nitrified NH4+—N (%) Day 14 (South Johnstone soil; [9]): −12.5 ± 0.6%
Nitrified NH4+—N (%) Day 21 (South Johnstone soil; [9]): −12.0 ± 1.6%
Nitrified NH4+—N (%) Day 28 (South Johnstone soil; [10]): −7.5 ± 0.5%
Nitrified NH4+—N (%) Day 3 (South Johnstone soil; [11]): −12.3 ± 1.2%
Nitrified NH4+—N (%) Day 7 (South Johnstone soil; [11]): −25.3 ± 0.9%
Nitrified NH4+—N (%) Day 14 (South Johnstone soil; [11]): −28.1 ± 1.3%
Nitrified NH4+—N (%) Day 21 (South Johnstone soil; [11]): −23.0 ± 2.3%
Nitrified NH4+—N (%) Day 28 (South Johnstone soil; [12]): −0.90 ± 2.3%
effectiveness among the treatments (NH4+—N retention, NOx−—N growth) (South Johnstone soil; South Johnstone soil, 25° C., days 21 and 28): least effective
inhibition in field studies for reducing leaching and N2O emissions [1]: ≤ 70%
